{"source": "patent US7507860B2", "about": "(Pfizer Inc., priority 2004, dated 2009)"}
{"biological_target": "T1, human androgen receptor (hAR) (Homo sapiens, UniProt P10275)", "T1 construct": "made in house; host or cells: baculovirus/Sf9 insect cells (crude extract)", "T1 sequence (P10275 1-920)": "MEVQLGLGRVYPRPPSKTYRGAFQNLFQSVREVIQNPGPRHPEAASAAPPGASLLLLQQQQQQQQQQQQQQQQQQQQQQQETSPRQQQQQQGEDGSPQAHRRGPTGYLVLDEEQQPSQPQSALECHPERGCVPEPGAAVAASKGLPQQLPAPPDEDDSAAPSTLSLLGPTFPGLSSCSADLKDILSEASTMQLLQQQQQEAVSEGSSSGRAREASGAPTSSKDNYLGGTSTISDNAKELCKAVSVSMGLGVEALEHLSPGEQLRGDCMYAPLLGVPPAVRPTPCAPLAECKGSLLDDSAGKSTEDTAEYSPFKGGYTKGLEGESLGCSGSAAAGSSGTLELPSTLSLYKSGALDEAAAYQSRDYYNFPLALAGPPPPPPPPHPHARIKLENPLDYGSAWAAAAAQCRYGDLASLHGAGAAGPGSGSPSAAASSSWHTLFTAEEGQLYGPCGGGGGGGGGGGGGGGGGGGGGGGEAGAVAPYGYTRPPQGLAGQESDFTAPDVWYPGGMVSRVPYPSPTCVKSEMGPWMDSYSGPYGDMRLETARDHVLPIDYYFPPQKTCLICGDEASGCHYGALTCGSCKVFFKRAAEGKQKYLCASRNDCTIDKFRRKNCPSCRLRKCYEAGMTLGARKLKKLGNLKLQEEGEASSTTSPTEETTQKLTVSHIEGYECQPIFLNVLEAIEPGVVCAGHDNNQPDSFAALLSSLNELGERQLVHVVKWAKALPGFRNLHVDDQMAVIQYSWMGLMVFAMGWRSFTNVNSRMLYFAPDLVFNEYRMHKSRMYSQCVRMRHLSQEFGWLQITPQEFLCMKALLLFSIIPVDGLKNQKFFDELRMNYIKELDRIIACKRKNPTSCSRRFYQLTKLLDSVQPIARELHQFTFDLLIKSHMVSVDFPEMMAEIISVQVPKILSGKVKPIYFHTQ", "test": "Competitive binding analysis on baculovirus/Sf9 generated hAR extracts with 3H-DHT tracer", "conditions": "hAR extract, 1 nM 3H-DHT, one hour at 4° C; mean of multiple tests; read-out: AR Binding IC50", "protocol": "The compounds of Formula I have affinity for the androgen receptor. […] The description below describes how the assay was carried out.\nCompetitive binding analysis was performed on baculovirus/Sf9 generated hAR extracts in the presence or absence of different concentrations of test agent and a fixed concentration of ^3H-dihydrotestosterone (^3H-DHT) as tracer. This binding assay method is a modification of a protocol previously described (Liao S., et. al. J. Steroid Biochem. 20:11-17 1984). Briefly, progressively decreasing concentrations of compounds are incubated in the presence of hAR extract (Chang et al. P.N.A.S. Vol. 89, pp. […], 1992), hydroxylapatite, and 1 nM^3H-DHT for one hour at 4° C. Subsequently, the binding reactions are washed three times to completely remove excess unbound ^3H-DHT. hAR bound ^3H-DHT levels are determined in the presence of compounds (=i.e competitive binding) and compared to levels bound when no competitor is present (=i.e. maximum binding). Compound binding affinity to the hAR is expressed as the concentration of compound at which one half of the maximum binding is inhibited. Table II below provides the results that were obtained for selected compounds (reported data is the mean of multiple tests as shown below)", "units": {"IC50": "nM"}}
{"molecule": "CC(C)CC(Oc1ccc(C#N)c(C(F)(F)F)c1)C(=O)NCc1ccncc1", "note": "(stereo not drawn) [Example 16, 2-(4-Cyano-3-trifluoromethyl-phenoxy)-4-methyl-pentanoic acid (pyridin-4-yl-methyl)-amide]", "IC50": 368}
{"molecule": "CCCC(Oc1ccc(C#N)c(C(F)(F)F)c1)C(=O)NCc1cccc(OC)c1", "note": "(stereo not drawn) [Example 40, 2-(4-Cyano-3-trifluoromethyl-phenoxy)-pentanoic acid-3-methoxy-benzylamide]", "IC50": 241}
{"molecule": "CCCC(Oc1ccc(C#N)c(C(F)(F)F)c1)C(=O)NCCCSC", "note": "(stereo not drawn) [Example 89, 2-(4-Cyano-3-trifluoromethyl-phenoxy)-pentanoic acid (3-methylsulfanyl-propyl)amide]", "IC50": 486}
{"molecule": "CCCC(Oc1ccc(C#N)c(C(F)(F)F)c1)C(=O)NCC1Cc2ccccc2CO1", "note": "(stereo not drawn) [Example 32, 2-(4-Cyano-3-trifluoromethyl-phenoxy)-pentanoic acid (isochroman-3-yl-methyl)amide]", "IC50": 407}
{"molecule": "CC(C)CC(Oc1ccc(C#N)c(C(F)(F)F)c1)C(=O)N[C@@H](C)c1ccccc1", "note": "(stereo in doubt) [Example 112, 2-(4-Cyano-3-trifluoromethyl-phenoxy)-4-methyl-pentanoic acid (1-phenyl-ethyl)-amide]", "IC50": 329}
{"molecule": "CCCC(Oc1ccc(C#N)c(C(F)(F)F)c1)C(=O)NCc1cccc2ccccc12", "note": "(stereo not drawn) [Example 77, 2-(4-Cyano-3-trifluoromethyl-phenoxy)-pentanoic acid (naphthalene-1-yl-methyl)amide]", "IC50": 292}
{"molecule": "CCNC(=O)C(CC(C)C)Oc1ccc(C#N)c(C(F)(F)F)c1", "note": "(stereo not drawn) [Example 3, 2-(4-Cyano-3-trifluoromethyl-phenoxy)-4-methyl-pentanoic acid ethylamide]", "IC50": 247}
{"molecule": "CCC(C)CNC(=O)C(CC(C)C)Oc1ccc(C#N)c(C(F)(F)F)c1", "note": "(stereo not drawn) [Example 75, 2-(4-Cyano-3-trifluoromethyl-phenoxy)-4-methyl-pentanoic acid-(2-methyl-butyl)amide]", "IC50": 417}
{"molecule": "Cc1ncccc1CNC(=O)C(CC(C)C)Oc1ccc(C#N)c(C(F)(F)F)c1", "note": "(stereo not drawn) [Example 76, 2-(4-Cyano-3-trifluoromethyl-phenoxy)-4-methyl-pentanoic acid (2-methyl-pyridin-3-yl-methyl)-amide]", "IC50": 479}
{"molecule": "COc1cccc(CNC(=O)C(CC(C)C)Oc2ccc(C#N)c(C(F)(F)F)c2)c1", "note": "(stereo not drawn) [Example 71, 2-(4-Cyano-3-trifluoromethyl-phenoxy)-4-methyl-pentanoic acid-3-methoxy-benzylamide]", "IC50": 288}
{"molecule": "CC(C)CC(Oc1ccc(C#N)c(C(F)(F)F)c1)C(=O)NC(C)c1ccc(O)cc1", "note": "(stereo not drawn) [Example 69, 2-(4-Cyano-3-trifluoromethyl-phenoxy)-4-methyl-pentanoic acid [1-(4-hydroxyphenyl)-ethyl]-amide]", "IC50": 341}
{"molecule": "CCCC(Oc1ccc(C#N)cc1Cl)C(=O)OCC", "note": "(stereo not drawn) [Example 100, 2-(2-Chloro-4-cyano-phenoxy)-pentanoic acid ethyl ester]", "IC50": 347}
{"molecule": "Cc1ccc(NC(=O)C(CC(C)C)Oc2ccc(C#N)c(C(F)(F)F)c2)cc1O", "note": "(stereo not drawn) [Example 88, 2-(4-Cyano-3-trifluoromethyl-phenoxy)-4-methyl-pentanoic acid (3-hydroxy-4-methyl-phenyl)-amide]", "IC50": 296}
{"molecule": "COc1ccc2[nH]cc(CCNC(=O)C(CC(C)C)Oc3ccc(C#N)c(C(F)(F)F)c3)c2c1", "note": "(stereo not drawn) [Example 98, 2-(4-Cyano-3-trifluoromethyl-phenoxy)-4-methyl-pentanoic acid [2-(5-methoxy-1H-indol-3-yl)-ethyl]-amide]", "IC50": 279}
{"molecule": "CCCOCCCNC(=O)C(CCC)Oc1ccc(C#N)c(C(F)(F)F)c1", "note": "(stereo not drawn) [Example 115, 2-(4-Cyano-3-trifluoromethyl-phenoxy)-pentanoic acid (3-propoxy-propyl)-amide]", "IC50": 428}
{"molecule": "CC(C)CC(Oc1ccc(C#N)c(C(F)(F)F)c1)C(=O)NCC1Cc2ccccc2CO1", "note": "(stereo not drawn) [Example 27, 2-(4-Cyano-3-trifluoromethyl-phenoxy)-4-methyl-pentanoic acid (isochroman-3-yl-methyl)-amide]", "IC50": 214}
{"molecule": "COc1ccc([C@@H](C)NC(=O)C(CC(C)C)Oc2ccc(C#N)c(C(F)(F)F)c2)cc1", "note": "(stereo in doubt) [Example 110, 2-(4-Cyano-3-trifluoromethyl-phenoxy)-4-methyl-pentanoic acid [1-(4-methoxy-phenyl)-ethyl]-amide]", "IC50": 340}
{"molecule": "CSCCCNC(=O)C(CC(C)C)Oc1ccc(C#N)c(C(F)(F)F)c1", "note": "(stereo not drawn) [Example 21, 2-(4-Cyano-3-trifluoromethyl-phenoxy)-4-methyl-pentanoic acid (3-methylsulfanyl-propyl)-amide]", "IC50": 362}
{"molecule": "Cc1cccnc1CNC(=O)C(CC(C)C)Oc1ccc(C#N)c(C(F)(F)F)c1", "note": "(stereo not drawn) [Example 20, 2-(4-Cyano-3-trifluoromethyl-phenoxy)-4-methyl-pentanoic acid (3-methyl-pyridin-2-yl-methyl)-amide]", "IC50": 410}
{"molecule": "CC(C)CC(Oc1ccc(C#N)c(C(F)(F)F)c1)C(=O)N[C@H](C)c1ccccc1", "note": "(stereo in doubt) [Example 122, 2-(4-Cyano-3-trifluoromethyl-phenoxy)-4-methyl-pentanoic acid (1-phenyl-ethyl)-amide]", "IC50": 329}
{"molecule": "CCCC(Oc1ccc(C#N)c(C(F)(F)F)c1)C(=O)NC(C)c1cccs1", "note": "(stereo not drawn) [Example 17, 2-(4-Cyano-3-trifluoromethyl-phenoxy)-pentanoic acid (1-thiophen-2-yl-ethyl)amide]", "IC50": 1000}
{"molecule": "CC(C)CC(Oc1ccc(C#N)c(C(F)(F)F)c1)C(=O)NCc1ccc(C(C)C)cc1", "note": "(stereo not drawn) [Example 70, 2-(4-Cyano-3-trifluoromethyl-phenoxy)-4-methyl-pentanoic acid 4-isopropyl-benzylamide]", "IC50": 253}
{"molecule": "2-(4-Cyano-3-trifluoromethyl-phenoxy)-4-methyl-pentanoic acid (2H-imidazo[1,2-a]pyridin-3-yl)-methyl)amide [Example 60]", "IC50": 318}
{"molecule": "CCCC(Oc1ccc(C#N)c(C(F)(F)F)c1)C(=O)NCCc1ccc(C)cc1", "note": "(stereo not drawn) [Example 50, 2-(4-Cyano-3-trifluoromethyl-phenoxy)-pentanoic acid-(2-p-tolyl-ethyl)-amide]", "IC50": 399}
{"molecule": "CCCC(Oc1ccc(C#N)c(C(F)(F)F)c1)C(=O)Nc1ccc(C)c(O)c1", "note": "(stereo not drawn) [Example 116, 2-(4-Cyano-3-trifluoromethyl-phenoxy)-pentanoic acid (3-hydroxy-4-methyl-phenyl)-amide]", "IC50": 296}
{"molecule": "CCCC(Oc1ccc(C#N)c(C(F)(F)F)c1)C(=O)N(Cc1ccccc1)C(C)C", "note": "(stereo not drawn) [Example 67, 2-(4-Cyano-3-trifluoromethyl-phenoxy)-pentanoic acid benzyl-isopropyl-amide]", "IC50": 440}
{"molecule": "CCCC(Oc1ccc(C#N)c(C(F)(F)F)c1)C(=O)NC(C)c1ccc(O)cc1", "note": "(stereo not drawn) [Example 6, 2-(4-Cyano-3-trifluoromethyl-phenoxy)-pentanoic acid [1-(4-hydroxy-phenyl)ethyl]-amide]", "IC50": 455}
{"molecule": "CCCC(Oc1ccc(C#N)c(C(F)(F)F)c1)C(=O)NCCc1ccccc1OC", "note": "(stereo not drawn) [Example 51, 2-(4-Cyano-3-trifluoromethyl-phenoxy)-pentanoic acid-[2-(2-methoxy-phenyl)ethyl]-amide]", "IC50": 381}
{"molecule": "CC(C)CC(Oc1ccc(C#N)c(C(F)(F)F)c1)C(=O)N(Cc1ccccc1)C(C)C", "note": "(stereo not drawn) [Example 63, 2-(4-Cyano-3-trifluoromethyl-phenoxy)-4-methyl-pentanoic acid benzyl-isopropyl-amide]", "IC50": 482}
{"molecule": "CCCC(Oc1ccc(C#N)c(C(F)(F)F)c1)C(=O)NCCSC", "note": "(stereo not drawn) [Example 90, 2-(4-Cyano-3-trifluoromethyl-phenoxy)-pentanoic acid (2-methylsulfanyl-ethyl)amide]", "IC50": 736}
